Data from patent US20140120166A1, “COMPOSITION OF ENTACOPONE” (INNOPHARMAX, INC., priority 2011, published 2014).

Experiment: Dissolution test (FDA dissolution method for entacapone, USP paddle apparatus, HPLC analysis)
Assay type: physicochemical
Settings: USP standard paddle stirring apparatus, 50 rpm, 900 mL pH 5.5 phosphate buffer solution, 120 minutes
Protocol: The dissolution test was conducted according to the drug dissolution method for entacapone obtained by searching the Dissolution Methods Database provided on the FDA website (http://www.accessdata.fda.gov/scripts/cder/dissolution/dsp_Search Results_Dissolutions.cfm). The dissolution test was carried out using a USP standard paddle stirring apparatus with a rotation speed of 50 rpm. The solvent used was 900 mL pH 5.5 phosphate buffer solution and the period of test was 120 minutes.

- Dissolution Rate (%): about 81.15%
SMILES: CCN(CC)C(=O)/C(C#N)=C/c1cc(O)c(O)c([N+](=O)[O-])c1 [entacapone, (E)-2-cyano-3-(3,4-dihydroxy-5-nitro-phenyl)-N,N-diethyl-2-propenamide]
